Data on one compound can be found in patent US9815815B2, “Non-selective kinase inhibitors” (GILEAD SCIENCES, INC., priority 2013, dated 2017).

One data set deals with PDGFRalpha (Homo sapiens, UniProt P16234). In words: biochemical. The protocol: (§1) In vitro kinase assay. A Z-lyte kinase assay was performed to determine the inhibition of PDGFRalpha and PDGFRbeta mediated phosphorylation by PK10453 (Structure 2). Ten point titration curves were modeled to calculate the IC50 (Invitrogen Select Screen®).
The target in the next data set is PDGFRbeta (Homo sapiens, UniProt P09619). In words: biochemical. The protocol:
as §1

Data set [1] in a line: Pharmacokinetic study, lung and plasma levels after inhalation or IV. The class given is in vivo, rat. How it is done: Pharmacokinetic studies. PK10453 (Structure 2) was administered intravenously or by inhalation to animals, which were then euthanized at time 0, 10, 20, and 60 min (n=3 each time point). Blood samples were taken by cardiac puncture, and the lungs excised. The lungs were homogenized and PK10453 (Structure 2) extracted with a 1:3 mixture of acetonitrile:methanol. Similarly, plasma was extracted with a 1:3 mixture of acetonitrile:methanol. Drug was assayed by LC MS/MS (PharmOptima Inc., Portage Mich.). First order exponential curves were fit to the data with Excel. AUC was determined with the trapezoidal method of integration.
For the pharmacokinetic study, the concentration of PK10453 (Structure 2) in lung when administered by inhalation was compared to the concentration achieved with IV administration. As described in Morén “Aerosols in medicine : principles, diagnosis, and therapy.” Amsterdam; New York: Elsevier. (1993) and Phalen et al., “Inhalation exposure methodology.” Environ Health Perspect 56:23-34 (1984)), it is possible to estimate the pharmacokinetic advantage of inhalation relative to intravenous administration, Rd, by comparing the AUC of a plot of the drug concentration as a function of time following respiratory and IV administration: Rd=[(AUClung/AUCplasma)respiratory]/[(AUClung/AUCplasma)IV]

A further data set relates to rat MCT+PN model. Briefly: RV pressure, PV loops, RV hypertrophy and morphometry in the rat MCT+PN model. The class given is in vivo. Conditions: for ESV: PV loop, second part of Table 3. The protocol:
Measurement of PV loops. In a separate cohort of animals, the MCT+PN model was developed as described above, and PK10453 (Structure 2) was then administered for 4 or 8 min three times a day to the drug treated group. The vehicle control group underwent 4 min exposures three times a day. Pressure Volume (PV) loops were obtained with an admittance system (Scisense, Inc.) after 14 days of treatment, while rats were under general anesthesia with isoflurane and 100% FiO2. Also, or in the alternative, RV pressures were obtained in each group after 14 days of treatment. In a subset of each group, pressure Volume (PV) loops were obtained with an admittance system (high fidelity catheter FTE1918B, Scisense, Inc.) after 14 days of treatment. After induction of general anesthesia and intubation via tracheostomy, the rats were placed on a pressure controlled ventilator (TOPOVENT). General anesthesia consisted of isoflurane and 100% FiO2 with peak inspiratory pressure set at 18 cm, and PEEP 5 cm H2O. A left thoracotomy was performed with admittance catheter in the RV via the RV outflow tract.
Histology and morphometric analysis. At the end of the study, the heart and lungs were removed from ventilated animals under general anesthesia. Heparinized saline was infused under pressure through the main pulmonary artery. The right upper lobe was immediately tied off and placed in liquid nitrogen for Western blot and NanoPro 100 ™ assay analysis. The heart was removed, and the RV free wall, interventricular septum and LV free wall dissected and weighed. Buffered formalin (10%) was infused under pressure both through the pulmonary artery and the trachea. Morphometric analysis was performed on H&E stained formalin fixed tissue sectioned at 8 μm. The media area and lumen area of pulmonary arterioles were measured with Image J software by a technician blinded to treatment group. Measurements were made on 20 pulmonary arterioles per section. The ratio of the lumen area to the total media area was determined This ratio normalizes the variation in total pulmonary arteriole area. […]

A short description of data set [2]: Systemic blood pressure study in ambulatory MCT treated rats. Type of data set: in vivo, rat. Conditions: inhalation. How it is done: Systemic blood pressure study. The effect of PK10453 (Structure 2) on systemic BP was studied in ambulatory MCT treated rats with DSI PAC40 transmitters implanted in the descending aorta. […] Blood pressure was recorded before each morning dose.

Data set [3] is described as follows: Body weight of treated subjects. Type of data set: in vivo, rat. As to conditions: treated vs. vehicle groups.

Sequence of PDGFRbeta (P09619 33-1106): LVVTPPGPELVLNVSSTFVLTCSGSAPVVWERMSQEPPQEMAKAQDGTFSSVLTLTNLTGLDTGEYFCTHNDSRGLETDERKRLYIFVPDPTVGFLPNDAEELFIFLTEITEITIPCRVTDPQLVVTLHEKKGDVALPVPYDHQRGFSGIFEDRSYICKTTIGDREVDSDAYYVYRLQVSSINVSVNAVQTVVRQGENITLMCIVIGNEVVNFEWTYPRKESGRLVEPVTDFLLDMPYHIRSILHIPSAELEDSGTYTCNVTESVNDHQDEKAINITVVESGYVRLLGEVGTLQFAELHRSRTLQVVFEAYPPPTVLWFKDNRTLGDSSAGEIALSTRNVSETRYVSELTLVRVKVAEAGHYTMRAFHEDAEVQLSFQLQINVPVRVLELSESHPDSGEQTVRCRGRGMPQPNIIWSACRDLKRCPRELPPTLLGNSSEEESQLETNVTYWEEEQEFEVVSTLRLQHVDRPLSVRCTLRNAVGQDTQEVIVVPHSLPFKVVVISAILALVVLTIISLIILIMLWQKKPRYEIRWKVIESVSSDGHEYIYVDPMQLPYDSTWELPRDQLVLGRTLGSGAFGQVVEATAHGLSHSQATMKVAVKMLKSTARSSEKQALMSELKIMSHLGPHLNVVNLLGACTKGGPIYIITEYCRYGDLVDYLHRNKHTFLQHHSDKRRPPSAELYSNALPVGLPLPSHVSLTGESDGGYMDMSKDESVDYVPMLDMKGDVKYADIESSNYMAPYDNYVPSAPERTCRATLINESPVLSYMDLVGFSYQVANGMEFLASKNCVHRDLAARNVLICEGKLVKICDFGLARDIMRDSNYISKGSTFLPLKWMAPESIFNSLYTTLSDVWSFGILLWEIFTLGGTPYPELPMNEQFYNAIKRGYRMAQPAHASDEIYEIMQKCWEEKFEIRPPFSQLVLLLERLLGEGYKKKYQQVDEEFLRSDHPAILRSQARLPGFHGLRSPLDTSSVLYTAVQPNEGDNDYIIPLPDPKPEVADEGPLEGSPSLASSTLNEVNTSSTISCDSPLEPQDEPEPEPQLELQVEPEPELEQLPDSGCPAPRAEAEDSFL
Sequence of PDGFRalpha (P16234 24-1089): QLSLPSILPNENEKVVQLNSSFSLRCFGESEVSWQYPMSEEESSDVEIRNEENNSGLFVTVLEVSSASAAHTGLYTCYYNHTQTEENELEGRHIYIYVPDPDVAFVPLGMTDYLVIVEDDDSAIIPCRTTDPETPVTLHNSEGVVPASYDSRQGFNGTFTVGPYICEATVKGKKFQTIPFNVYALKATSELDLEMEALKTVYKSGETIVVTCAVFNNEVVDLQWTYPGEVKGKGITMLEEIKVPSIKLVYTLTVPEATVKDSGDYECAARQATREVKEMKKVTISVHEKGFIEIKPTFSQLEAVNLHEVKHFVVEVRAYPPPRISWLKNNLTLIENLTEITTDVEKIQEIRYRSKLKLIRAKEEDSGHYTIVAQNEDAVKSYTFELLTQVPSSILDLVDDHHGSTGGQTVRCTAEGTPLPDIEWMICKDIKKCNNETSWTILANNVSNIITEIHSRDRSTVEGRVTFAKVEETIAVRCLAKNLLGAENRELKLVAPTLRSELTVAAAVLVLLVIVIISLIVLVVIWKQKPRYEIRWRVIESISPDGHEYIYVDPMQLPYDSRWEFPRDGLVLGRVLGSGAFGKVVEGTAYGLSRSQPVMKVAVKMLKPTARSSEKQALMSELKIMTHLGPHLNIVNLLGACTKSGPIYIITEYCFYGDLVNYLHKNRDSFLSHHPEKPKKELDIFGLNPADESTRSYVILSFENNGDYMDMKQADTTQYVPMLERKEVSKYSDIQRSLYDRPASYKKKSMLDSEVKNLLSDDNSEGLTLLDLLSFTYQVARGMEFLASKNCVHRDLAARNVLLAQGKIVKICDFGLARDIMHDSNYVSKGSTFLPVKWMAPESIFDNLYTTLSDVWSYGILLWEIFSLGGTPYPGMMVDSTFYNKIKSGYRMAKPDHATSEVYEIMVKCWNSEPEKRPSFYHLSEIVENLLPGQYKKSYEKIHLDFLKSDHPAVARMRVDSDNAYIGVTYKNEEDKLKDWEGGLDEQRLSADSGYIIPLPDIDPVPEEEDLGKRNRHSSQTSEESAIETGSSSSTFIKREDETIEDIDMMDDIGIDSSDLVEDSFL

For orientation: IC50 means the point on the concentration scale where inhibition reaches its midpoint. A higher IC50 goes with a need for much substance. Take `COc1cc(-c2cncc(N[C@@H](C)c3cccc(NC(=O)c4cncc(C)c4)c3)n2)ccc1O` [PK10453, (S)-N-(3-(1-((6-(4-hydroxy-3-methoxyphenyl)pyrazin-2yl)amino)ethyl)phenyl)-5-methylnicotinamide]: the half-inhibitory concentration (IC50) was 35 nM on PDGFRalpha and 10.1 nM against PDGFRbeta. Besides, in data set [1] (inhalation relative to IV), the “Rd = [(AUClung/AUCplasma)respiratory]/[(AUClung/AUCplasma)IV]” value turned out to be 44.6. Further, the “advantage of inhaled compared to IV administration” value in data set [1] (lung/plasma AUC ratio) is reported as 45 fold. The same compound registered an RV systolic pressure in the data set with rat MCT+PN model (D8: 8 min 3x/day, 14 days) of 43.0±3.0 mm Hg. Further, the ESV with rat MCT+PN model (D4, mean) was determined as 408.95 µL; in the data set on rat MCT+PN model (D8, mean), 488.68 µL. In addition, in data set [2], the “effect on systemic BP, in words” value is “did not have an adverse effect”. The “body weight, in words” value in data set [3] is “trend to a slower rate of decline in body weight”.
